Measured values as given in patent publication US10160785B2, “Antimicrobial peptides and their use for the treatment of topical infections” (priority 2015, dated 2018).

Experiments:
P. aeruginosa (Liberec) = assay: Synergistic effect of peptides with antibiotics, FIC index; assay type: cell-based, Pseudomonas aeruginosa; conditions: FIC <0.5 synergism, 0.5-2 additive, >2 antagonism, averages of three experiments; for FIC indexes (fractional inhibitory concentration) Combination with RIF against P. aeruginosa: peptide combined with rifampicin; for FIC indexes (fractional inhibitory concentration) Combination with TET against P. aeruginosa: peptide combined with tetracycline
Method: (§1) MICs values of various combinations of two fold serial dilutions of peptides and antibiotics were determined using the same methodology as in the case of antimicrobial activity determination (Example 2). To consider the type of the final effect, FIC indexes (fractional inhibitory concentration) were used and calculated as follows:
(§2) [formula] where MICPC and MICAC are the MICs of the peptide and antibiotic in combination, respectively, and MICP and MICA are the MICs of the peptide and antibiotic tested alone, respectively. FIC<0.5 were considered as synergy, 0.5≤FIC≤2 as addition effect, and FIC>2 as antagonism.

in vitro = conditions: human
In short: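 Peptides at 2-200 μmol.l^−1 incubated 1 h at 37 °C with 5% v/v human erythrocyte suspension in physiological solution. Released haemoglobin in supernatant read at 540 nm against buffer (0%) and 0.2% Triton X100 (100%) lysis controls. LC50 is the peptide concentration lysing 50% of cells.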

Candida krusei ATCC 6258 = assay: microbe, parasite or virus in culture; assay type: cell-based; conditions: RPMI broth microdilution, 35° C., 48 hours, visual
In short: (§3)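 RPMI 1640/0.165 M MOPS microdilution; peptides 0.625–160 μmol.l^−1 as pipetted; final 5×10^2–2.5×10^3 CFU/ml; 35 °C, static, 48 h; visual MIC = no-growth endpoint.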

[1] = system: Candida glabrata ATCC 2001; assay: microbe, parasite or virus in culture; assay type: cell-based; conditions: RPMI broth microdilution, 35° C., 48 hours, visual
In short: as §3

[2] = system: Candida tropicalis ATCC 750; assay: microbe, parasite or virus in culture; assay type: cell-based; conditions: RPMI broth microdilution, 35° C., 48 hours, visual
In short: as §3

[3] = system: Candida dubliniensis ATCC MYA-646; assay: microbe, parasite or virus in culture; assay type: cell-based; conditions: RPMI broth microdilution, 35° C., 48 hours, visual
In short: as §3

[4] = system: Candida albicans (Olomouc); assay: microbe, parasite or virus in culture; assay type: cell-based; conditions: RPMI broth microdilution, 35° C., 48 hours, visual
In short: as §3

Candida glabrata DSY 565 = assay: microbe, parasite or virus in culture; assay type: cell-based; conditions: RPMI broth microdilution, 35° C., 48 hours, visual
In short: as §3

[5] = system: Candida albicans ATCC MYA-2876; assay: microbe, parasite or virus in culture; assay type: cell-based; conditions: RPMI broth microdilution, 35° C., 48 hours, visual
In short: as §3

S. aureus (Liberec) = assay: Synergistic effect of peptides with antibiotics, FIC index; assay type: cell-based, Staphylococcus aureus; conditions: peptide combined with amoxicillin; FIC <0.5 synergism, 0.5-2 additive, >2 antagonism; averages of three experiments
Method: as §1, §2

[6] = system: Staphylococcus epidermidis Motol; conditions: 37° C., 20 h
Method: (§4) Gram-positive bacteria (Micrococcus luteus, Bacillus subtilis, Staphylococcus aureus, Staphylococcus epidermidis and Enterococcus faecalis), Gram-negative bacteria (Escherichia coli and Pseudomonas aeruginosa) and the yeast (Candida albicans) were grown to exponential phase and then were diluted with fresh medium. BHI medium (Oxoid, Great Britain) was used for Enterococcus faecalis; YPD medium containing yeast extract peptone and glucose was used for Candida albicans and LB medium (Sigma, Czech Republic) was used for the remaining microorganisms. Then the microorganisms were added to the solutions of the tested antimicrobial peptides in LB medium in multi-well plates. The final peptide concentration it the wells was in the range of 0.1 to 100 μmol.l^−1. That was made by twofold serial dilution from the peptide stock solution (1 mmol.l^−1). The plates were incubated at 37° C. for 20 h while being continuously shaken in a Bioscreen C (Oy Growth Curves AB Ltd., Helsinki, Finland). Absorbance was measured at 540 nm every 15 min. Antimicrobial activity (Table 2) was determined as a quantitative minimum inhibitory concentration (MIC) by observing bacterial growth in the presence of different concentrations of tested peptides. In the experiments ca 10^5 CFU of bacteria or candida per well were routinely used.
(§5) Multiresistant clinical isolates of bacteria were obtained from University Hospital in Motol, Prague, Czech Republic and from Liberec Regional Hospital, Czech Republic. Methicillin resistant Staphylococcus aureus (MRSA) 6271 and Pseudomonas aeruginosa 5482 were from the Czech National Collection of Type Cultures, the National Institute of Public Health, Prague, Czech Republic. Other bacteria were from the Czech Collection of Microorganisms, Brno, Czech Republic. Candida albicans came from the Faculty of Medicine, Palacky University, Olomouc, Czech Republic.

[7] = system: Pseudomonas aeruginosa Liberec; conditions: Pseudomonas aeruginosa Liberec; 37° C., 20 h
Method: as §4, §5

Escherichia coli = conditions: 37° C., 20 h
Method: as §4, §5

[8] = system: Methicillin resistant Staphylococcus aureus (MRSA) 6271; conditions: 37° C., 20 h
Method: as §4, §5

[9] = system: Staphylococcus aureus Liberec; conditions: Staphylococcus aureus Liberec clinical isolate; 37° C., 20 h
Method: as §4, §5

[10] = system: Pseudomonas aeruginosa 5482; conditions: 37° C., 20 h
Method: as §4, §5

Bacillus subtilis = conditions: Bacillus subtilis; 37° C., 20 h
Method: as §4, §5

Micrococcus luteus = conditions: Micrococcus luteus; 37° C., 20 h
Method: as §4, §5

[11] = system: Staphylococcus aureus Motol; conditions: Staphylococcus aureus Motol clinical isolate; 37° C., 20 h
Method: as §4, §5

[12] = system: Enterococcus faecalis Motol; conditions: BHI medium, 37° C., 20 h
Method: as §4, §5

Candida albicans Olomouc = conditions: Candida albicans Olomouc; YPD medium; 37° C., 20 h (Example 2)
Method: as §4, §5

| Substance | FIC indexes (fractional inhibitory concentration) Combination with RIF against P. aeruginosa (P. aeruginosa (Liberec)) | FIC indexes (fractional inhibitory concentration) Combination with TET against P. aeruginosa (P. aeruginosa (Liberec)) | HC50 at 1 h (in vitro) | Antifungal activity MIC C. krusei ATCC 6258 (Candida krusei ATCC 6258) | Antifungal activity MIC C. glabrata ATCC 2001 [1] | Antifungal activity MIC C. tropicalis ATCC 750 [2] | Antifungal activity MIC C. dubliniensis ATCC MYA-646 [3] | Antifungal activity MIC C. albicans Olomouc [4] | Antifungal activity MIC C. glabrata DSY 565 (Candida glabrata DSY 565) | Antifungal activity MIC C. albicans ATCC MYA-2876 [5] | FIC indexes (fractional inhibitory concentration) Combination with AMX against S. aureus (S. aureus (Liberec)) | Antimicrobial activity MIC S. e. Motol [6] | Antimicrobial activity MIC P. a. Liberec [7] | Antimicrobial activity MIC E. c. (Escherichia coli) | Antimicrobial activity MIC S. a. 6271 [8] | Antimicrobial activity MIC S. a. Liberec [9] | Antimicrobial activity MIC P. a. 5482 [10] | Antimicrobial activity MIC B. s. (Bacillus subtilis) | Antimicrobial activity MIC M. l. (Micrococcus luteus) | Antimicrobial activity MIC S. a. Motol [11] | other results |
| --- | --- | --- | --- | --- | --- | --- | --- | --- | --- | --- | --- | --- | --- | --- | --- | --- | --- | --- | --- | --- | --- |
| H-GIWSSLLKKLKKIIAK-NH2 [XIV] | 0.271 | 0.354 | 165 µM | 5.2 µM | 19.1 µM | 1.2 µM | 9.0 µM | 8.2 µM | 48.0 µM | 10.0 µM | 0.396 | 1.5 µM | 21.0 µM | 1.6 µM | 20.0 µM | 4.6 µM | 6.3 µM | 0.8 µM | 0.8 µM | 5.3 µM | Antimicrobial activity MIC E. f. Motol [12]: 46.0 µM; Antimicrobial activity MIC C. a. Olomouc (Candida albicans Olomouc): 16.0 µM |
| H-GILKSLLKKLKKIIAK-NH2 [X] | 0.333 | 0.521 | > 400 µM | 5.0 µM | 34.0 µM | 1.0 µM | 14.0 µM | 10.5 µM | 71.1 µM | 17.0 µM | 0.542 | 2.2 µM | 8.9 µM | 10.0 µM | 16.5 µM | 4.3 µM | 5.0 µM | 1.5 µM | 1.4 µM | 10.0 µM | Antimicrobial activity MIC E. f. Motol [12]: 76.7 µM; Antimicrobial activity MIC C. a. Olomouc (Candida albicans Olomouc): 24.0 µM |
| H-GILSSWLKKLKKIIAK-NH2 [XV] | 0.396 | 0.646 | > 400 µM | 8.0 µM | 40.0 µM | 1.2 µM | 22.0 µM | 21.0 µM | 88.9 µM | 17.0 µM | 0.375 | 2.0 µM | 5.9 µM | 11.0 µM | 16.0 µM | 6.6 µM | 4.0 µM | 1.6 µM | 1.6 µM | 16.2 µM | Antimicrobial activity MIC E. f. Motol [12]: 73.3 µM; Antimicrobial activity MIC C. a. Olomouc (Candida albicans Olomouc): 16.7 µM |
| H-GILSKLLKKLKKIIAK-NH2 [XI] | 0.344 | 0.646 | > 400 µM | 5.0 µM | 26.0 µM | 1.0 µM | 10.5 µM | 12.0 µM | 40.0 µM | 20.0 µM | 0.333 | 1.8 µM | 8.5 µM | 17.5 µM | 22.7 µM | 5.9 µM | 4.5 µM | 1.4 µM | 1.6 µM | 10.0 µM | Antimicrobial activity MIC E. f. Motol [12]: 72.7 µM; Antimicrobial activity MIC C. a. Olomouc (Candida albicans Olomouc): 45.3 µM |
